Source: ChEMBL document CHEMBL1125660, “Synthesis and aromatase inhibitory activity of novel 1-(4-aminophenyl)-3-azabicyclo[3.1.0]hexane- and -[3.1.1]heptane-2,4- diones” (J Med Chem, 1991)
pIC50: −log10 of the molar value.

Tests used:
Rattus norvegicus [1] = species on record: Rattus norvegicus; assay type: functional; settings: dose 125 mg/kg; route oral
Rattus norvegicus [2] = species on record: Rattus norvegicus; assay type: functional; settings: dose 62.5 mg/kg; route oral
Rattus norvegicus [3] = species on record: Rattus norvegicus; assay type: functional; settings: dose 31.3 mg/kg; route oral
[4] = molecular target: T1, Steroid 17-alpha-hydroxylase/17,20 lyase (Homo sapiens, UniProt P05093); assay type: functional
T1 sequence (P05093 whole entry): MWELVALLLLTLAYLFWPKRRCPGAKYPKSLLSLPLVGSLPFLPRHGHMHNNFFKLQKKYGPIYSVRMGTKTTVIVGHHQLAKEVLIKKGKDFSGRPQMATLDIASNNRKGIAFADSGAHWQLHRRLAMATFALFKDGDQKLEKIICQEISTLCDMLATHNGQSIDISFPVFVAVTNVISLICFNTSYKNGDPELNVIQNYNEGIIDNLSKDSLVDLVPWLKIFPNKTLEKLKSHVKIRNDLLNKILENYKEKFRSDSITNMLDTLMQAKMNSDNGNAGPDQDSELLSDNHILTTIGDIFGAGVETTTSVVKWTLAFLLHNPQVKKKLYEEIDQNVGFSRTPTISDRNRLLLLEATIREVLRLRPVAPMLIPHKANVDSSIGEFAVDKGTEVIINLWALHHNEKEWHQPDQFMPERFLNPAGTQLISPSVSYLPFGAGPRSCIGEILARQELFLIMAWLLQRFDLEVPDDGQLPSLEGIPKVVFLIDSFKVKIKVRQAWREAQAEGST

Rattus norvegicus [5] = species on record: Rattus norvegicus; assay type: functional; settings: dose 15.6 mg/kg; route oral
Rattus norvegicus [6] = species on record: Rattus norvegicus; assay type: functional; settings: dose 15.6 mg/kg
Rattus norvegicus [7] = species on record: Rattus norvegicus; assay type: functional; settings: dose 31.3 mg/kg
Rattus norvegicus [8] = species on record: Rattus norvegicus; assay type: functional; settings: dose 12.5 mg/kg
Rattus norvegicus [9] = species on record: Rattus norvegicus; assay type: functional; settings: dose 31.3 mg/kg; remark: listed apart in the source
Rattus norvegicus [10] = species on record: Rattus norvegicus; assay type: functional; settings: dose 31.3 mg/kg; route oral; remark: listed apart in the source
Rattus norvegicus [11] = species on record: Rattus norvegicus; assay type: functional; settings: dose 15.6 mg/kg; remark: listed apart in the source
Rattus norvegicus [12] = species on record: Rattus norvegicus; assay type: functional; settings: dose 125 mg/kg; route oral; remark: listed apart in the source
[13] = molecular target: T2, Cytochrome P450 11B2, mitochondrial (Rattus norvegicus, UniProt P30099)
T2 sequence (P30099 whole entry): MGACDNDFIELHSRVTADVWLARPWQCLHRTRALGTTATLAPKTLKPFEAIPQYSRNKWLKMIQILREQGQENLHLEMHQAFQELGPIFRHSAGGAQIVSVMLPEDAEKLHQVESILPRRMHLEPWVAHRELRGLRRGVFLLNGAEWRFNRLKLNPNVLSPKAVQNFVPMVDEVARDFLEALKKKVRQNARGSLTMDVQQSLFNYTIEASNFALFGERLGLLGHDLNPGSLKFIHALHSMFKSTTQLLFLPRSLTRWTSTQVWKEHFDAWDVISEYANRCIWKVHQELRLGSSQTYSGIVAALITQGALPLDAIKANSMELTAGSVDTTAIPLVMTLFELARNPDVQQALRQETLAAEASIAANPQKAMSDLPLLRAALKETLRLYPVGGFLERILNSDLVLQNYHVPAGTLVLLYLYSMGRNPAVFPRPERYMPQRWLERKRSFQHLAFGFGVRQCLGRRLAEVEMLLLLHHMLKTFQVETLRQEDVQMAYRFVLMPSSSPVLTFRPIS

Rattus norvegicus [14] = species on record: Rattus norvegicus; assay type: functional
Aromatase [15] = molecular target: T3, Aromatase (Rattus norvegicus, UniProt P22443); settings: in vivo, po
T3 sequence (P22443 whole entry): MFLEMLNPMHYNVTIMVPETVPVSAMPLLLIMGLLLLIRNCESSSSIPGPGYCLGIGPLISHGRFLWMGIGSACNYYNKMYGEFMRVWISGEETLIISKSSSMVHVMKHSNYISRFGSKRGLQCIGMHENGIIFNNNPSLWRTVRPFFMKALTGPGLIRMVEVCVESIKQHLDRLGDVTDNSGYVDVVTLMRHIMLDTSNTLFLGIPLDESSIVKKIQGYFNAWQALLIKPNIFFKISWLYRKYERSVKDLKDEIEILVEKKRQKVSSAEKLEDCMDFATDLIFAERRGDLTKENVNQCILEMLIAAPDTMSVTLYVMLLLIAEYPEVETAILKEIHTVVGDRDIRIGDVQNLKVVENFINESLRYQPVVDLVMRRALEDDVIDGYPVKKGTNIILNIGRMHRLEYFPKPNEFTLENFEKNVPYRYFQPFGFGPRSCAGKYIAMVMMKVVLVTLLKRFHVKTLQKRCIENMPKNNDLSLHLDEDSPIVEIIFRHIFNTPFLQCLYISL

Rattus norvegicus [16] = species on record: Rattus norvegicus; assay type: functional; settings: dose 62.5 mg/kg; route oral; remark: listed apart in the source
Rattus norvegicus [17] = species on record: Rattus norvegicus; assay type: functional; settings: dose 62.5 mg/kg; route oral; remark: listed apart in the source
Rattus norvegicus [18] = species on record: Rattus norvegicus; assay type: functional; settings: dose 15.6 mg/kg; route oral; remark: listed apart in the source
Rattus norvegicus [19] = species on record: Rattus norvegicus; assay type: functional; settings: dose 62.5 mg/kg
Rattus norvegicus [20] = species on record: Rattus norvegicus; assay type: functional; settings: dose 31.3 mg/kg; route oral; remark: listed apart in the source
Rattus norvegicus [21] = species on record: Rattus norvegicus; assay type: functional; settings: dose 125 mg/kg; route oral; remark: listed apart in the source
Rattus norvegicus [22] = species on record: Rattus norvegicus; assay type: functional; settings: dose 62.5 mg/kg; route oral; remark: listed apart in the source
Rattus norvegicus [23] = species on record: Rattus norvegicus; assay type: functional; settings: dose 25.6 mg/kg; route oral
Aromatase [24] = molecular target: T3, Aromatase; settings: in vivo, po; remark: listed apart in the source
[25] = molecular target: T2, Cytochrome P450 11B2, mitochondrial; remark: listed apart in the source
[26] = molecular target: T1, Steroid 17-alpha-hydroxylase/17,20 lyase; assay type: functional; remark: listed apart in the source
[27] = molecular target: T2, Cytochrome P450 11B2, mitochondrial; remark: listed apart in the source
Rattus norvegicus [28] = species on record: Rattus norvegicus; assay type: functional; settings: dose 30 mg/kg; route oral
[29] = molecular target: T2, Cytochrome P450 11B2, mitochondrial; remark: listed apart in the source
Rattus norvegicus [30] = species on record: Rattus norvegicus; assay type: functional; settings: dose 30 mg/kg; route oral; remark: listed apart in the source
Rattus norvegicus [31] = species on record: Rattus norvegicus; assay type: functional; settings: dose 30 mg/kg; route oral; remark: listed apart in the source
Rattus norvegicus [32] = species on record: Rattus norvegicus; assay type: functional; settings: dose 100 mg/kg
Rattus norvegicus [33] = species on record: Rattus norvegicus; assay type: functional; settings: dose 30 mg/kg; route oral; remark: listed apart in the source
Rattus norvegicus [34] = species on record: Rattus norvegicus; assay type: functional; settings: dose 100 mg/kg; route oral
Rattus norvegicus [35] = species on record: Rattus norvegicus; assay type: functional; settings: dose 100 mg/kg; route oral; remark: listed apart in the source
Rattus norvegicus [36] = species on record: Rattus norvegicus; assay type: functional; settings: dose 30 mg/kg
Rattus norvegicus [37] = species on record: Rattus norvegicus; assay type: functional; remark: listed apart in the source
Rattus norvegicus [38] = species on record: Rattus norvegicus; assay type: functional; settings: dose 100 mg/kg; route oral; remark: listed apart in the source

Structure (SMILES): Nc1ccc(C23CC2C(=O)N(CC2CCCCC2)C3=O)cc1 (stereo unspecified)
- Response (Rattus norvegicus [1]): 5%
- Response (Rattus norvegicus [2]): 91.6%
- Response (Rattus norvegicus [3]): 55%
- pIC50 [4]: < 3.48
- Response (Rattus norvegicus [5]): 78.3%
- New tumors (Rattus norvegicus [6]): 3
- New tumors (Rattus norvegicus [7]): 3
- New tumors (Rattus norvegicus [8]): 0
- No. of tumors (Rattus norvegicus [9]): 20
- Response (Rattus norvegicus [10]): 30%
- No. of tumors (Rattus norvegicus [11]): 23
- Response (Rattus norvegicus [12]): 0%
- pIC50 [13]: < 3.48
- No. of tumors (Rattus norvegicus [14]): 23
- ED (Aromatase [15]): 1.5 mg/kg
- No. of tumors (Rattus norvegicus [16]): 24
- Response (Rattus norvegicus [17]): 4.2%
- Response (Rattus norvegicus [18]): 17.4%
- New tumors (Rattus norvegicus [19]): 0
- Response (Rattus norvegicus [20]): 15%
- Response (Rattus norvegicus [21]): 82.6%
- Response (Rattus norvegicus [22]): 4.1%
- Response (Rattus norvegicus [23]): 4.3%

Structure (SMILES): Nc1ccc(C23CC2C(=O)N(CC2CCCCC2)C3=O)cc1 (stereo in doubt; (+)-1h)
- ED (Aromatase [24]): 1 mg/kg
- pIC50 [25]: < 4.47
- pIC50 [26]: < 4.47

Structure (SMILES): Nc1ccc(C23CC(C2)C(=O)N(C2CCCCC2)C3=O)cc1
- pIC50 [4]: 3.85
- ED (Aromatase [15]): 0.3 mg/kg
- pIC50 [27]: 3.85

Structure (SMILES): CCC1(c2ccc(N)cc2)CCC(=O)NC1=O (stereo unspecified) [AMINOGLUTETHIMIDE]
- Response (Rattus norvegicus [28]): 4.25%
- pIC50 [29]: 3.96
- No. of tumors (Rattus norvegicus [30]): 24
- Response (Rattus norvegicus [31]): 91.6%
- New tumors (Rattus norvegicus [32]): 5
- Response (Rattus norvegicus [33]): 4.1%
- Response (Rattus norvegicus [34]): 22.2%
- Response (Rattus norvegicus [35]): 11.2%
- New tumors (Rattus norvegicus [36]): 4
- No. of tumors (Rattus norvegicus [37]): 18
- Response (Rattus norvegicus [38]): 66.6%
- pIC50 [26]: 4.22
